Where two headings read alike, the source gives them in different places.
What was measured:
[1] = biological target: T1, AEA-DA lipid probe targets in Neuro2a cells (Mus musculus, UniProt Q61595)
T1 sequence (Q61595 1-1327): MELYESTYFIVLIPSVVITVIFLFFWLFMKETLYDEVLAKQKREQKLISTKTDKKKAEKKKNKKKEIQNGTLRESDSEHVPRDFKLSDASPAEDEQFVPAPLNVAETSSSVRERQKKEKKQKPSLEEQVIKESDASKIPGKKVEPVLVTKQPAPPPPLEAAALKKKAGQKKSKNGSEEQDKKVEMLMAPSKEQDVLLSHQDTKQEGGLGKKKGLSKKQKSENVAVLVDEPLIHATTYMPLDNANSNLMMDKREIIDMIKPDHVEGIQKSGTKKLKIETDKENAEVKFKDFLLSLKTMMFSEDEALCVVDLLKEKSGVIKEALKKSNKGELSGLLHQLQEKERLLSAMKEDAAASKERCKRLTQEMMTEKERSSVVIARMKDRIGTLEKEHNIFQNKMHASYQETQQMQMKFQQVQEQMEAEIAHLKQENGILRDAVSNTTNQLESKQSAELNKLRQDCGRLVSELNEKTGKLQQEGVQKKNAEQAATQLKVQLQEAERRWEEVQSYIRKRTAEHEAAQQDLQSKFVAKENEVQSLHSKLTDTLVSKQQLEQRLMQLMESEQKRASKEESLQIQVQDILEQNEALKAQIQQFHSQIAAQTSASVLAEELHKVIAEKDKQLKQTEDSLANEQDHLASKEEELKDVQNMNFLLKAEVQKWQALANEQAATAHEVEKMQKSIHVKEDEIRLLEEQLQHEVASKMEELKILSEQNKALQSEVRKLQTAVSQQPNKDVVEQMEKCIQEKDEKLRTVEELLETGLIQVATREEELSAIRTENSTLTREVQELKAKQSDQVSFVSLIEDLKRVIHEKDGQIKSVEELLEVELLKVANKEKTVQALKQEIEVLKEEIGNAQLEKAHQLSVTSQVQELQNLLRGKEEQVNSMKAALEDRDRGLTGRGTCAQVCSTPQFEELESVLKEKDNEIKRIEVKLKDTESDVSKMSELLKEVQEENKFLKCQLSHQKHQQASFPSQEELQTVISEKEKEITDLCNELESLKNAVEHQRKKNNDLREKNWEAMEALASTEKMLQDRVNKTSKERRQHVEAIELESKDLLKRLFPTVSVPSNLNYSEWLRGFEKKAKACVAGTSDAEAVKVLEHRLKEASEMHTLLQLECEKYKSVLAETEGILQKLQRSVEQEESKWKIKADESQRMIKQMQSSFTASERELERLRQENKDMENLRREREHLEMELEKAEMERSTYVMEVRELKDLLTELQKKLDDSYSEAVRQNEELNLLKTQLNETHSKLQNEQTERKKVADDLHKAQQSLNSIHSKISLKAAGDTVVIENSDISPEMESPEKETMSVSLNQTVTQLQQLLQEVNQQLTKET

[2] = biological target: AEA-DA lipid probe targets in Neuro2a cells (Mus musculus, UniProt Q9CYN2)
Sequence of AEA-DA lipid probe targets in Neuro2a cells (Mus musculus, UniProt Q9CYN2) (Q9CYN2 whole entry): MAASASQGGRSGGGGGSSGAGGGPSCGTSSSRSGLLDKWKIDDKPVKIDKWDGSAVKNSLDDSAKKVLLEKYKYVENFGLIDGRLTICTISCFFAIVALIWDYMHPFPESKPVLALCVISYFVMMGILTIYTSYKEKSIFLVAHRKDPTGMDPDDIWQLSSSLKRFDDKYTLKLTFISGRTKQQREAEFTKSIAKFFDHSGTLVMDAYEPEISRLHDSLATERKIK

[3] = biological target: T2, AEA-DA lipid probe targets in Neuro2a cells (Mus musculus, UniProt P42125)
T2 sequence (P42125 29-289): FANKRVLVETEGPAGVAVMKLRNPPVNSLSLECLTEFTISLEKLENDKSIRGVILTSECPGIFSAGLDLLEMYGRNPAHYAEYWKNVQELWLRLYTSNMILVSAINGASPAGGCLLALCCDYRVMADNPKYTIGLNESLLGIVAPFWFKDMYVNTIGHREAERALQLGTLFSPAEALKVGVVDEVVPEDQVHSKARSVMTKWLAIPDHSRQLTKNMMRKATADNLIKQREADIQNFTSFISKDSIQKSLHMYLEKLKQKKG

[4] = biological target: T3, AEA-DA lipid probe targets in Neuro2a cells (Mus musculus, UniProt Q8CFE6)
T3 sequence (Q8CFE6 1-504): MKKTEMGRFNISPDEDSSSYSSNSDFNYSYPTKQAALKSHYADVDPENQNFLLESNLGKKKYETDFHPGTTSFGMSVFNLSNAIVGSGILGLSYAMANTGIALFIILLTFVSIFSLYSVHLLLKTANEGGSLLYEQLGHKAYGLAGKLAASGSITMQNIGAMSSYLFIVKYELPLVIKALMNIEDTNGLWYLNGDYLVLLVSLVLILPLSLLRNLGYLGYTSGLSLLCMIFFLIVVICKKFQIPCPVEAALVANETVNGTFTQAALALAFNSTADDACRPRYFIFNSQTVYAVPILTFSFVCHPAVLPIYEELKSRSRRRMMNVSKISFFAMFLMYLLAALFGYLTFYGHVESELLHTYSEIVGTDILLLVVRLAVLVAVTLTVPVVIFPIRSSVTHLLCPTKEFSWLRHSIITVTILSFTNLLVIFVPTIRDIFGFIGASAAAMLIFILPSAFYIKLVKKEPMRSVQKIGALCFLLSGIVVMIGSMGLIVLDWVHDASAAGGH

[5] = biological target: AEA-DA lipid probe targets in Neuro2a cells (Mus musculus, UniProt O55143)
Sequence of AEA-DA lipid probe targets in Neuro2a cells (Mus musculus, UniProt O55143) (O55143 whole entry): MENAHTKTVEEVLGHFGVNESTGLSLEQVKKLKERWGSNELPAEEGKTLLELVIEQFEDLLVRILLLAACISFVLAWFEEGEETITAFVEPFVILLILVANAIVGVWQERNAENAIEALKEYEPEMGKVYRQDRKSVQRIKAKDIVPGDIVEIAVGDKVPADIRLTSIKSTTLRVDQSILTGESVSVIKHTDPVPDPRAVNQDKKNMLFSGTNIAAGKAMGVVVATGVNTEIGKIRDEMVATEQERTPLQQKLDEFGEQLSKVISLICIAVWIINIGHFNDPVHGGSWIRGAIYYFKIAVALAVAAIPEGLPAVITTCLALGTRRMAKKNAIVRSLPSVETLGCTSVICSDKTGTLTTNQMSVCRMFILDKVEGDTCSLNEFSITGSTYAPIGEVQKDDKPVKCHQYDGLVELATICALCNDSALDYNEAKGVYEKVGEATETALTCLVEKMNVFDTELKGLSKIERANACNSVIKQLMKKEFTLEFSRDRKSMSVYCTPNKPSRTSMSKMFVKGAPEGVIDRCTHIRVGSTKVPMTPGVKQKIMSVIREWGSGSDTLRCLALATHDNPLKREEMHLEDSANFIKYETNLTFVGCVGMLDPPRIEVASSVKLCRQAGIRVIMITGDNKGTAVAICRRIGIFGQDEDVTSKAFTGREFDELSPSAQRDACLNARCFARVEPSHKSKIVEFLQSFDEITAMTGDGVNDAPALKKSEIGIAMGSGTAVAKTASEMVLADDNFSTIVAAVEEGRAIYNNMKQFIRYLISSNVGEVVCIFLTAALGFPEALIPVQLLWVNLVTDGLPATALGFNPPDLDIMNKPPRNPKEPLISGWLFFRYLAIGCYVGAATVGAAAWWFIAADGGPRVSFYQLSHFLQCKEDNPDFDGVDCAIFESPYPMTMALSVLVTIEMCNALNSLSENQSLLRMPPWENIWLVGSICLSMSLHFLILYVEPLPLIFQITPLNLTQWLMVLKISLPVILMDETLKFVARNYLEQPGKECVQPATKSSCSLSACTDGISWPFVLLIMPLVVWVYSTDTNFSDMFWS

[6] = biological target: AEA-DA lipid probe targets in Neuro2a cells (Mus musculus, UniProt Q9ET22)
Sequence of AEA-DA lipid probe targets in Neuro2a cells (Mus musculus, UniProt Q9ET22) (Q9ET22 37-506): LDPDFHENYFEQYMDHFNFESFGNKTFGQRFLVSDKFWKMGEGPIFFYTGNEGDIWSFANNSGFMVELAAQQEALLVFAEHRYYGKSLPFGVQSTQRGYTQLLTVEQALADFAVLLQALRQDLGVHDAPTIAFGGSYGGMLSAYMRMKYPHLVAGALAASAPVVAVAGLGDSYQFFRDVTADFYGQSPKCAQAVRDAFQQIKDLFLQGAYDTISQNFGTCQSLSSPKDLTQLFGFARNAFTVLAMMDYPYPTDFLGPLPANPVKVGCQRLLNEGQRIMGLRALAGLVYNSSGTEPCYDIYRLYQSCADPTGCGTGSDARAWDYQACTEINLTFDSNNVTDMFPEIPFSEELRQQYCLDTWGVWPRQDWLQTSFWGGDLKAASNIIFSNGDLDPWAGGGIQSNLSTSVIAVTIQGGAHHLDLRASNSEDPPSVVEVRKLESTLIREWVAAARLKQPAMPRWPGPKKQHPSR

[7] = biological target: T4, AEA-DA lipid probe targets in Neuro2a cells (Mus musculus, UniProt Q07646)
T4 sequence (Q07646 1-335): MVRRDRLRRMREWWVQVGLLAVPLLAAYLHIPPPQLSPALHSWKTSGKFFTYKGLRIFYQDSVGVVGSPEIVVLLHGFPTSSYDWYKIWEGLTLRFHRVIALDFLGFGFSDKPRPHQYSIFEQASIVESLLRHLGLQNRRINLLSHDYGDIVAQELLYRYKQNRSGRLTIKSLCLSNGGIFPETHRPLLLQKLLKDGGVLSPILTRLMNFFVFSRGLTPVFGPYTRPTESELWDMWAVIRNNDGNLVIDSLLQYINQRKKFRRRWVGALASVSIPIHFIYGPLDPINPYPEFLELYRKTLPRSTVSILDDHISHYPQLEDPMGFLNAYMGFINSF

With `CCCCC/C=C\C/C=C\C/C=C\C/C=C\CCCC(=O)NCCO` [AEA, anandamide, reference compound] the “SILAC ratio, Ktn1” value ([1]; competitor 200 μM) was 1.4, the “SILAC ratio Spcs2” value ([2]; competitor 200 μM) was 1.7 and the “SILAC ratio, Eci1” value ([3]; competitor 200 μM) was 2.0. The “SILAC ratio Slc38a2” value ([4]; competitor 200 μM) was 1.5, the “SILAC ratio, Atp2a2” value ([5]; competitor 200 μM) was 2.2 and the “SILAC ratio Dpp7” value ([6]; competitor 200 μM) was 1.4. The “SILAC ratio Mest” value ([7]; competitor 200 μM) was 1.5.

`O=C(/C=C/c1cccnc1)NCCCCC1CCN(C(=O)c2ccccc2)CC1` [FK-866, reference compound] was tested, and the “SILAC ratio, Ktn1” value ([1]; competitor 25 μM) was 1.2, the “SILAC ratio Spcs2” value ([2]; competitor 25 μM) was 1.3 and the “SILAC ratio, Eci1” value ([3]; competitor 25 μM) was 1.2. The “SILAC ratio Slc38a2” value ([4]; competitor 25 μM) was 1.0, the “SILAC ratio, Atp2a2” value ([5]; competitor 25 μM) was 1.1 and the “SILAC ratio Dpp7” value ([6]; competitor 25 μM) was 1.0. For the same molecule, the “SILAC ratio Mest” value ([7]; competitor 25 μM) was 1.2.

With `CN1CCN(C(=O)c2c(-c3ccccc3)c3cc([N+](=O)[O-])ccc3n2C)CC1` [KML110, (1-Methyl-5-nitro-3-phenyl-1H-indol-2-yl)(4-methylpiperazin-1-yl)methanone] the “SILAC ratio Spcs2” value ([2]; competitor 25 μM) was 1.6, the “SILAC ratio, Eci1” value ([3]; competitor 25 μM) was 1.5 and the “SILAC ratio Slc38a2” value ([4]; competitor 25 μM) was 1.2. The “SILAC ratio, Atp2a2” value ([5]; competitor 25 μM) was 1.3, the “SILAC ratio Dpp7” value ([6]; competitor 25 μM) was 1.5 and the “SILAC ratio Mest” value ([7]; competitor 25 μM) was 1.3.

With `CN1CCN(C(=O)c2[nH]c3ccc([N+](=O)[O-])cc3c2-c2ccccc2)CC1` [MJN228, (4-Methylpiperazin-1-yl)(5-nitro-3-phenyl-1H-indol-2-yl)methanone] the “SILAC ratio, Ktn1” value ([1]; competitor 10 μM) was 1.0, the “SILAC ratio, Ktn1” value ([1]; competitor 25 μM) was 1.4 and the “SILAC ratio, Ktn1” value ([1]; competitor 100 μM) was 1.2. The “SILAC ratio Spcs2” value ([2]; competitor 10 μM) was 1.2, the “SILAC ratio Spcs2” value ([2]; competitor 25 μM) was 1.4 and the “SILAC ratio Spcs2” value ([2]; competitor 50 μM) was 1.5. For the same molecule, the “SILAC ratio Spcs2” value ([2]; competitor 100 μM) was 1.8, the “SILAC ratio, Eci1” value ([3]; competitor 10 μM) was 1.4 and the “SILAC ratio, Eci1” value ([3]; competitor 25 μM) was 2.0. For the same molecule, the “SILAC ratio, Eci1” value ([3]; competitor 50 μM) was 2.4, the “SILAC ratio, Eci1” value ([3]; competitor 100 μM) was 3.8 and the “SILAC ratio Slc38a2” value ([4]; competitor 10 μM) was 1.2. For the same molecule, the “SILAC ratio Slc38a2” value ([4]; competitor 25 μM) was 1.3, the “SILAC ratio Slc38a2” value ([4]; competitor 100 μM) was 1.2 and the “SILAC ratio, Atp2a2” value ([5]; competitor 10 μM) was 1.3. The “SILAC ratio, Atp2a2” value ([5]; competitor 25 μM) was 1.4, the “SILAC ratio, Atp2a2” value ([5]; competitor 50 μM) was 1.4 and the “SILAC ratio, Atp2a2” value ([5]; competitor 100 μM) was 1.9. The “SILAC ratio Dpp7” value ([6]; competitor 10 μM) was 1.0, the “SILAC ratio Dpp7” value ([6]; competitor 25 μM) was 0.7 and the “SILAC ratio Dpp7” value ([6]; competitor 50 μM) was 1.0. The “SILAC ratio Dpp7” value ([6]; competitor 100 μM) was 0.7, the “SILAC ratio Mest” value ([7]; competitor 10 μM) was 1.2 and the “SILAC ratio Mest” value ([7]; competitor 25 μM) was 1.4. For the same molecule, the “SILAC ratio Mest” value ([7]; competitor 50 μM) was 1.3 and the “SILAC ratio Mest” value ([7]; competitor 100 μM) was 1.6.

For `C=CCN(C)CCCCCCOc1ccc(C(=O)c2ccc(Br)cc2)c(F)c1` [Ro 48-8071, reference compound], the “SILAC ratio, Ktn1” value ([1]; competitor 25 μM) was 0.8, the “SILAC ratio Spcs2” value ([2]; competitor 25 μM) was 1.2 and the “SILAC ratio, Eci1” value ([3]; competitor 25 μM) was 0.9. The “SILAC ratio Slc38a2” value ([4]; competitor 25 μM) was 0.7, the “SILAC ratio, Atp2a2” value ([5]; competitor 25 μM) was 1.2 and the “SILAC ratio Dpp7” value ([6]; competitor 25 μM) was 0.3. The “SILAC ratio Mest” value ([7]; competitor 25 μM) was 1.2.

— patent US10168342B2, “Lipid probes and uses thereof” (THE SCRIPPS RESEARCH INSTITUTE, priority 2015, dated 2019)
